The test system of data set [1] is Trypanosoma cruzi. Nature of the data set: Antitrypanosomal activity against epimastigote stage of Trypanosoma cruzi IRHOD/CO/2008/SN3 assessed as parasite growth inhibition after 72 hrs by Neubauer hemocytometric chamber analysis. It counts as functional, organism-based. To be noted: IRHOD/CO/2008/SN3, 72 h.
Data set [2] deals with Trypanosoma cruzi. Description: Antitrypanosomal activity against amastigote stage of Trypanosoma cruzi IRHOD/CO/2008/SN3 infected in African green monkey Vero cells assessed as parasite growth inhibition after 72 hrs by Giemsa staining-based microscopic analysis. In kind it is functional, organism-based. To be noted: IRHOD/CO/2008/SN3, Vero.
Data set [3] can be described thus: Selectivity index, ratio of IC50 for African green monkey Vero cells to IC50 for amastigote stage of Trypanosoma cruzi IRHOD/CO/2008/SN3 infected in African green monkey Vero cells. To be noted: read-out: Ratio IC50. It counts as toxicity, cell-based.
Data set [4] relates to Vero. Description: Cytotoxicity against African green monkey Vero cells assessed as cell viability after 72 hrs by propidium iodide/fluorescein diacetate staining-based flow cytometric analysis. To be noted: Chlorocebus sabaeus. On the technique in general: In flow cytometry, cells or beads pass a laser one at a time.
Data set [5] can be described thus: Selectivity index, ratio of IC50 for African green monkey Vero cells to IC50 for epimastigote stage of Trypanosoma cruzi IRHOD/CO/2008/SN3. In kind it is toxicity, cell-based. Particulars: read-out: Ratio IC50.
In data set [6] the test system is Trypanosoma cruzi. Nature of the data set: Trypanocidal activity against metacyclic trypomastigote stage of Trypanosoma cruzi infected in BALB/c albino mouse acute chagas disease model assessed as reduction of parasite burden at 25 mg/kg, ip administered on day 7 to 12 post-infection measured on day 14 by ELISA. Also noted: dose 25 mg/kg. It counts as functional, organism-based. (An ELISA detects its analyte on a solid surface through an enzyme-linked reagent.)

In data set [7] the test system is Trypanosoma cruzi. Nature of the data set: Antitrypanosomal activity against amastigote stage of Trypanosoma cruzi IRHOD/CO/2008/SN3 infected in African green monkey Vero cells assessed as decrease in infection rate at IC25 preincubated for 12 hrs followed by compound washout measured every 48 hrs for 10 days by Neubauer hemocytometric chamber analysis relative to control. In kind it is functional.

Data set [8] concerns Trypanosoma cruzi. Description: Trypanocidal activity against metacyclic trypomastigote stage of Trypanosoma cruzi infected in BALB/c albino mouse acute chagas disease model assessed as inhibition of parasitemia at 25 mg/kg, ip administered on day 7 to 12 post-infection measured every 2 days until day 40 […] relative to control. It counts as functional. To be noted: route intraperitoneal.

The test system of data set [9] is Trypanosoma cruzi. Nature of the data set: Antitrypanosomal activity against trypomastigote stage of Trypanosoma cruzi IRHOD/CO/2008/SN3 assessed as reduction of trypomastigote number per mililiter of culture medium at IC25 preincubated for 12 hrs followed by compound washout measured every 48 hrs for 10 days by Neubauer hemocytometric chamber analysis relative to control. In kind it is functional.

For data set [10], the system named is Trypanosoma cruzi. Description: Antitrypanosomal activity against amastigote stage of Trypanosoma cruzi IRHOD/CO/2008/SN3 infected in African green monkey Vero cells assessed as reduction of amastigote number per cell at IC25 preincubated for 12 hrs followed by compound washout measured every 48 hrs for 10 days by Neubauer hemocytometric chamber analysis relative to control. In kind it is functional.

Data set [11] deals with Trypanosoma cruzi. Description: Antitrypanosomal activity against epimastigote stage of Trypanosoma cruzi IRHOD/CO/2008/SN3 assessed as change in excreted acetate level at IC25 after 96 hrs by 1H NMR analysis relative to control. It counts as functional.
In data set [12] the test system is Mus musculus. Description: Toxicity in BALB/c albino mouse infected with blood trypomastigote stage of Trypanosoma cruzi assessed as increase in AST/GOT level in serum at 25 mg/kg, ip administered on day 7 to 12 post-infection measured after day 120 relative to control. In kind it is organism-based. Also noted: dose 25 mg/kg, route intraperitoneal. To be noted: in vivo.

Data set [13] concerns Trypanosoma cruzi. Description: Antitrypanosomal activity against epimastigote stage of Trypanosoma cruzi IRHOD/CO/2008/SN3 assessed as formation of electron-dense vacuoles at IC25 after 72 hrs by TEM analysis. It counts as functional, organism-based.
Data set [14] has as its system Mus musculus. Description: Toxicity in BALB/c albino mouse infected with blood trypomastigote stage of Trypanosoma cruzi assessed as change in alkaline phosphatase level in serum at 25 mg/kg, ip administered on day 7 to 12 post-infection measured after day 120 relative to control. In kind it is organism-based. Also noted: dose 25 mg/kg, route intraperitoneal. Particulars: in vivo.

The test system of data set [15] is Trypanosoma cruzi. Nature of the data set: Antitrypanosomal activity against epimastigote stage of Trypanosoma cruzi IRHOD/CO/2008/SN3 assessed as change in excreted pyruvate level at IC25 after 96 hrs by 1H NMR analysis relative to control. It counts as functional.
Data set [16] has as its system Trypanosoma cruzi. Description: Antitrypanosomal activity against epimastigote stage of Trypanosoma cruzi IRHOD/CO/2008/SN3 assessed as mitochondrial swelling with rupture of membrane at IC25 after 72 hrs by TEM analysis. In kind it is functional, organism-based.
Data set [17] has as its system Mus musculus. Nature of the data set: Toxicity in BALB/c albino mouse infected with blood trypomastigote stage of Trypanosoma cruzi assessed as increase in total bilirubin level in serum at 25 mg/kg, ip administered on day 7 to 12 post-infection measured after day 120 relative to control. In kind it is organism-based. The arrangement: dose 25 mg/kg, route intraperitoneal. To be noted: in vivo.

Data set [18] deals with Trypanosoma cruzi. Nature of the data set: Antitrypanosomal activity against epimastigote stage of Trypanosoma cruzi IRHOD/CO/2008/SN3 assessed as change in excreted succinate level at IC25 after 96 hrs by 1H NMR analysis relative to control. It counts as functional.
The test system of data set [19] is Trypanosoma cruzi. Description: Antitrypanosomal activity against epimastigote stage of Trypanosoma cruzi IRHOD/CO/2008/SN3 assessed as partially scalloped parasite outer membrane at IC25 after 72 hrs by TEM analysis. In kind it is functional, organism-based.
In data set [20] the test system is Mus musculus. Description: Toxicity in BALB/c albino mouse infected with blood trypomastigote stage of Trypanosoma cruzi assessed as increase in uric acid level in serum at 25 mg/kg, ip administered on day 7 to 12 post-infection measured after day 120 relative to control. In kind it is organism-based. Also noted: dose 25 mg/kg, route intraperitoneal. To be noted: in vivo.

The test system of data set [21] is Mus musculus. Description: Toxicity in BALB/c albino mouse infected with blood trypomastigote stage of Trypanosoma cruzi assessed as change in ALT/GPT level in serum at 25 mg/kg, ip administered on day 7 to 12 post-infection measured after day 120 relative to control. In kind it is organism-based. The arrangement: dose 25 mg/kg, route intraperitoneal. To be noted: in vivo.

Data set [22] has as its system Mus musculus. Description: Toxicity in BALB/c albino mouse infected with blood trypomastigote stage of Trypanosoma cruzi assessed as increase in LDH level in serum at 25 mg/kg, ip administered on day 7 to 12 post-infection measured after day 120 relative to control. It counts as organism-based. Particulars: in vivo. The arrangement: dose 25 mg/kg, route intraperitoneal.

Data set [23] concerns Mus musculus. Description: Toxicity in BALB/c albino mouse infected with blood trypomastigote stage of Trypanosoma cruzi assessed as change in creatinephophokinase-MB level in serum at 25 mg/kg, ip administered on day 7 to 12 post-infection measured after day 120 relative to control. In kind it is organism-based. The arrangement: dose 25 mg/kg, route intraperitoneal. Particulars: in vivo.

Data set [24] concerns Trypanosoma cruzi. Nature of the data set: Antitrypanosomal activity against epimastigote stage of Trypanosoma cruzi IRHOD/CO/2008/SN3 assessed as disappearance of microtubular structure at IC25 after 72 hrs by TEM analysis. In kind it is functional, organism-based.
Data set [25] relates to Trypanosoma cruzi. Nature of the data set: Antitrypanosomal activity against epimastigote stage of Trypanosoma cruzi IRHOD/CO/2008/SN3 assessed as change in excreted alanine level at IC25 after 96 hrs by 1H NMR analysis relative to control. It counts as functional.
The subject of data set [26] is Mus musculus. Description: Toxicity in BALB/c albino mouse infected with blood trypomastigote stage of Trypanosoma cruzi assessed as change in urea level in serum at 25 mg/kg, ip administered on day 7 to 12 post-infection measured after day 120 relative to control. Also noted: dose 25 mg/kg, route intraperitoneal. To be noted: in vivo. In kind it is organism-based.

Data set [27] has as its system Trypanosoma cruzi. Nature of the data set: Antitrypanosomal activity against epimastigote stage of Trypanosoma cruzi IRHOD/CO/2008/SN3 assessed as change in excreted lactate level at IC25 after 96 hrs by 1H NMR analysis relative to control. It counts as functional.
The subject of data set [28] is Trypanosoma cruzi. Description: Antitrypanosomal activity against epimastigote stage of Trypanosoma cruzi IRHOD/CO/2008/SN3 assessed as discontinuation of parasite outer membrane at IC25 after 72 hrs by TEM analysis. It counts as functional, organism-based.
Data set [29] deals with Mus musculus. Description: Toxicity in BALB/c albino mouse assessed as mortality at 25 mg/kg, ip administered for 5 days. It counts as organism-based. The arrangement: dose 25 mg/kg, route intraperitoneal. Particulars: in vivo, 120 h.

A word on the IC50: it is the point on the concentration scale where inhibition reaches its midpoint. As usually defined, the inhibition in vivo is how much of the control response was suppressed.

The source made the active and inactive calls. No cut-off for these calls is given here.

With `C[N+](C)(C)CCNc1c(NCc2ccccc2)c(=O)c1=O`, the figures for the IC50 in data set [1], in data set [2] and in data set [4] were 60.8 µM, 39.2 µM and 74.2 µM, respectively. Further, the selectivity ratio in data set [3] is 1.9; in data set [5] it was 1.2.
For `CN(C)CCCNc1c(NCCCNc2c(NCCCN(C)C)c(=O)c2=O)c(=O)c1=O` the same measures were 96.2 µM, 46 µM, 11.4 µM, 0.2 and 0.1.
Take `O=C(Cn1ccnc1[N+](=O)[O-])NCc1ccccc1` [BENZNIDAZOLE]: the result in [6] was Active. Also, the figures for the “inhibition (INH)” value in [7], in data set [9] and in [10] were 20%, 21% and 15%, respectively. The inhibition in vivo at 25 mg/kg in data set [8] is 26%.
On to `CCCCNc1c(NCCN(C)C)c(=O)c1=O`, for which the Activity was -18.6% in data set [11]; 40% in [12]; less than 10% in data set [14]; -11.1% in [15]; 40% in data set [17]; -28.3% in data set [18]. Besides, the Activity in data set [20] was 30%; in [21], less than 10%; in [22] it was 40%; in data set [23] it was less than 10%; in data set [25], -11.1%; in [26] it was less than 10%. Also, the Activity in data set [27] is -23.9%; in [29], “Non-toxic”. Also, the IC50 in [1] was 10.5 µM; in [2] it was 9.3 µM; in data set [4], 260 µM. In addition, the result in data set [13], in data set [16], in data set [19], in data set [24], in data set [6] and in data set [28] was Active. Moreover, the “inhibition (INH)” value in [7] came to 35%; in data set [9], 18%; in data set [10] it was 35%. Moreover, the inhibition in vivo at 25 mg/kg in data set [8] worked out at 31%. Further, the values for the selectivity ratio in data set [3] and in [5] were 28 and 24.8, respectively.
For the compound `CCCCNc1c(NCC[N+](C)(C)C)c(=O)c1=O`, the IC50 in [1] was 107 µM; in data set [2] it was 38.5 µM; in data set [4] it was 57.6 µM. The selectivity ratio in data set [3] was 1.5; in data set [5], 0.5.
As for `CN(C)c1ccc(Nc2c(O)c(=O)c2=O)cc1`, the results for the IC50 in [1], in data set [2] and in [4] were 15.9 µM, 10.1 µM and 12.9 µM, respectively. Besides, the results for the selectivity ratio in data set [3] and in data set [5] were 1.3 and 0.8, respectively.
`NCc1ccc(Nc2c(O)c(=O)c2=O)cc1`: the IC50 in data set [1] stood at 89.1 µM; in data set [2] it was 72.6 µM; in data set [4], 36.6 µM. Further, the results for the selectivity ratio in data set [3] and in [5] were 0.5 and 0.4, respectively.
Take `CCOC(=O)c1ccc(Nc2c(O)c(=O)c2=O)cc1`: the IC50 is 26.3 µM in [1], 18.4 µM in data set [2] and 21.5 µM in [4]. Besides, the results for the selectivity ratio in data set [3] and in [5] were 1.2 and 0.8, respectively.
For `O=c1c(O)c(Nc2ccccc2O)c1=O` the same measures were 50.8 µM, 44 µM, 228 µM, 5.2 and 4.5.
On to `CN1CCCNc2c(c(=O)c2=O)NCCCN(C)CCCNc2c(c(=O)c2=O)NCCC1`, for which the IC50 was 21.8 µM in data set [1], 31.2 µM in [2] and 111 µM in data set [4]. Further, the selectivity ratio in [3] was found to be 3.5; in data set [5] it was 5.1.
The corresponding values for `CCCCCCCCCCCCCCCCNc1c(NCC[N+](C)(C)C)c(=O)c1=O` are 44.9 µM, 26.3 µM, 151 µM, 5.7 and 3.4.
The corresponding values for `C[N+](C)(C)CCNc1c(NCc2cccc(CNc3c(NCC[N+](C)(C)C)c(=O)c3=O)c2)c(=O)c1=O` are 119 µM, 43.9 µM, 73.1 µM, 1.7 and 0.6.
For `O=c1c(NCc2ccccc2)c(NC2CCN(Cc3ccccc3)CC2)c1=O` the same measures were 96.9 µM, 34.7 µM, 338 µM, 9.7 and 3.5.
With `CCCCNc1c(NCC(=O)O)c(=O)c1=O`, the IC50 in [1] is 35.7 µM; in data set [2] it was 23.8 µM; in [4], 54.8 µM. Moreover, the selectivity ratio in data set [3] was 2.3; in data set [5], 1.5.
The corresponding values for `CCCCCCCCCCCCCCCCNc1c(NCCN(C)C)c(=O)c1=O` are 49.8 µM, 22.4 µM, 90.1 µM, 3.4 and 1.8.
For `CCCCNc1c(NCCCC(=O)O)c(=O)c1=O` the same measures were 17.3 µM, 66.9 µM, 21.6 µM, 0.3 and 1.2.

(Values after ChEMBL document CHEMBL3124761, “Synthesis and biological evaluation of N,N'-squaramides with high in vivo efficacy and low toxicity: toward a low-cost drug against Chagas disease” (J Med Chem, 2014).)
